Source: patent publication US20230279023A1, “N/O-Linked Degrons and Degronimers for Protein Degradation” (C4 Therapeutics, Inc., priority 2019, published 2023)
Counter-ions that a name gives are not always drawn.

target: CRBN-DDB1 (Homo sapiens (Human), UniProt Q96SW2); assay: Fluorescence polarization (FP) assay for compound ligand binding to CRBN-DDB1; conditions: FP displacement of (−)-Thalidomide-Alexa Fluor or Pomalidomide-fluorescein probe; 400 nM CRBN-DDB1, 5 nM probe; Additional Compounds of the Present Invention
Procedure: Measuring compound ligand binding to CRBN-DDB1 was carried out using an established sensitive and quantitative in vitro fluorescence polarization (FP) based binding assay. […] Compounds were dispensed from serially diluted DMSO stock into black 384-well compatible fluorescence polarization plates using an Echo acoustic dispenser. Compound binding to CRBN-DDB1 was measured by displacement of either a (−)-Thalidomide-Alexa Fluor® or Pomalidomide-fluorescein conjugated probe dye. […] Matching control wells excluding CRBN-DDB1 were used to correct for background fluorescence. Plates were read on an Envision plate reader with appropriate FP filter sets. The corrected S (perpendicular) and P (parallel) values were used to calculate fluorescence polarization (FP) with the following equation: […]

Sequence of CRBN-DDB1 (Q96SW2 whole entry): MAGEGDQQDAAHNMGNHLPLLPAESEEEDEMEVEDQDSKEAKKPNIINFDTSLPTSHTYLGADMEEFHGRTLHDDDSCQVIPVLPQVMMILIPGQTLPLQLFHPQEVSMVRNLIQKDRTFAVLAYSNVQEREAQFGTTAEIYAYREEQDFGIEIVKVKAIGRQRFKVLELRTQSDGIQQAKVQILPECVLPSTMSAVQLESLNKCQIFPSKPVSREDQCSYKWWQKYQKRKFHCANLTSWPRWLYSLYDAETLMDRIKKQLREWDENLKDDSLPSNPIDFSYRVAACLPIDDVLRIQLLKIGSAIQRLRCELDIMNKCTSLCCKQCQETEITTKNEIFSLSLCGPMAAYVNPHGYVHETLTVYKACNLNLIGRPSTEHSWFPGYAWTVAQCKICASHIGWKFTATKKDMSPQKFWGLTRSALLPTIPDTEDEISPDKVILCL
Sequence of CRBN-DDB1 (Q16531 whole entry partner): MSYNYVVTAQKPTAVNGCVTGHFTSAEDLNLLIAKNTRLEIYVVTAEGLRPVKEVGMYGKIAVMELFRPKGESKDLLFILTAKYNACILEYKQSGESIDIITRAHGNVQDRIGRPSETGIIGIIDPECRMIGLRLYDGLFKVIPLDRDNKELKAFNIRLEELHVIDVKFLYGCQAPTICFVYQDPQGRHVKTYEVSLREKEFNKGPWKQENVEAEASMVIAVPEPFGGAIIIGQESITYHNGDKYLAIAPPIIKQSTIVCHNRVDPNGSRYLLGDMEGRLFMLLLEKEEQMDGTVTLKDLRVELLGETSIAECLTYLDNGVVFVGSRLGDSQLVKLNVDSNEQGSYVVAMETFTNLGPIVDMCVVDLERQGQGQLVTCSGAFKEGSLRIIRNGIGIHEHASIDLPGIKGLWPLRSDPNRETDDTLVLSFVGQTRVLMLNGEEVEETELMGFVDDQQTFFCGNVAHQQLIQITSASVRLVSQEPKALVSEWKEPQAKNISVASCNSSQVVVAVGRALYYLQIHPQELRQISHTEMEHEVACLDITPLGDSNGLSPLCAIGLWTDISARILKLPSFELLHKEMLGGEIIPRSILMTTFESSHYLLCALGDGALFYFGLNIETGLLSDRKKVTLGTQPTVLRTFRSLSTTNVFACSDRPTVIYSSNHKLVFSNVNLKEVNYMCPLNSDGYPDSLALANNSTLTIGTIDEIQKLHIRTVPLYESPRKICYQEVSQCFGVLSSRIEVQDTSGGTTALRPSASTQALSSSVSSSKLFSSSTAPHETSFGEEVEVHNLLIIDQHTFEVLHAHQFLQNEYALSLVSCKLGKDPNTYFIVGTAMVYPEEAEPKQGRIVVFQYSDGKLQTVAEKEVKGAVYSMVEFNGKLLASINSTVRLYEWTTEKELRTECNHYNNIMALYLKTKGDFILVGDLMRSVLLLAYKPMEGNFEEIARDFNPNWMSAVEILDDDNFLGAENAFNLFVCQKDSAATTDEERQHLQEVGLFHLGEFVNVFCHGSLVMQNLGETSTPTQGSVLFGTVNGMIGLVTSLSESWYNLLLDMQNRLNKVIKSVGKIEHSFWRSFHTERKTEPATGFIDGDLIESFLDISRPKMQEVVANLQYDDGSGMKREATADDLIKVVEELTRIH

| SMILES | Kd |
| --- | --- |
| O=C1CCC(Oc2ccc3c(c2)CCCC3=O)C(=O)N1 (stereo not shown) [Compound 148] | < 10 µM |
| CCc1ccc(OC2CCC(=O)NC2=O)cc1 (stereo not shown) [Compound 137] | < 10 µM |
| O=C1CCC(OC2CCN(c3ccccc3)CC2)C(=O)N1 (stereo not shown) [Compound 134, 3-(1-Phenyl-piperidin-4-yloxy)-piperidine-2,6-dione] | > 100 µM |
| O=C1CCC(Oc2ccc(N3CCNCC3)cc2)C(=O)N1 (stereo not shown) [Compound 133, 3-(4-Piperazin-1-yl-phenoxy)-piperidine-2,6-dione hydrochloride] | < 10 µM |
| CCOc1cccc(OC2CCC(=O)NC2=O)c1 (stereo not shown) [Compound 141] | < 10 µM |
| CC(=O)CCc1ccc(OC2CCC(=O)NC2=O)cc1 (stereo not shown) [Compound 154] | < 10 µM |
| CN1Cc2cc(NC3CCC(=O)NC3=O)ccc2C1=O (stereo not shown) [Compound 160] | < 10 µM |
| CC1(C)Cc2cccc(OC3CCC(=O)NC3=O)c2O1 (stereo not shown) [Compound 145] | < 10 µM |
| O=C1CCC(Oc2ccc3c(c2)OCO3)C(=O)N1 (stereo not shown) [Compound 149] | < 10 µM |
| O=C1CCC(Oc2ccc3ccccc3c2)C(=O)N1 (stereo not shown) [Compound 135] | < 10 µM |
| O=C1CCC(Oc2ccc(C3CCCC3)cc2)C(=O)N1 (stereo not shown) [Compound 152] | < 10 µM |
| N#Cc1ccc(-c2ccc(OC3CCC(=O)NC3=O)cc2)cc1 (stereo not shown) [Compound 139] | < 10 µM |
| C#Cc1cccc(OC2CCC(=O)NC2=O)c1 (stereo not shown) [Compound 150] | < 10 µM |
| CC(C)(C)OC(=O)N1CCN(c2ccc(OC3CCC(=O)NC3=O)cc2)CC1 (stereo not shown) [Compound 132, 4-[4-(2,6-Dioxo-piperidin-3-yloxy)-phenyl]-piperazine-1-carboxylic acid tert-butyl ester] | < 10 µM |
| CN(C)c1cccc(OC2CCC(=O)NC2=O)c1 (stereo not shown) [Compound 151] | < 10 µM |
| N#Cc1ccc2cc(OC3CCC(=O)NC3=O)ccc2c1 (stereo not shown) [Compound 138] | < 10 µM |
| O=C1CCC(Oc2ccccc2C(=O)N2CCCC2)C(=O)N1 (stereo not shown) [Compound 136] | > 100 µM |

same assay, conditions: FP displacement of (−)-Thalidomide-Alexa Fluor or Pomalidomide-fluorescein probe; 400 nM CRBN-DDB1, 5 nM probe; Compounds of the Present Invention

| SMILES | Kd |
| --- | --- |
| CNC(=O)CN(C)C1CCC(=O)NC1=O (stereo not shown) [Compound 109] | > 100 µM |
| CN(c1ccc(C(F)(F)F)cc1)C1CCC(=O)NC1=O (stereo not shown) [Compound 59] | < 10 µM |
| O=C1CCC(Nc2ccc(Oc3ccccc3)cc2)C(=O)N1 (stereo not shown) [Compound 28] | < 10 µM |
| O=C1CCC(Nc2cccc(-c3ccccc3)c2)C(=O)N1 (stereo not shown) [Compound 3] | < 10 µM |
| CN(c1ccccc1)C1CCC(=O)NC1=O (stereo not shown) [Compound 1] | < 10 µM |
| COc1ccc(NC2CCC(=O)NC2=O)cc1Cl (stereo not shown) [Compound 46] | < 10 µM |
| O=C1CCC(Nc2ccc(N3CCOCC3)cc2)C(=O)N1 (stereo not shown) [Compound 67] | < 10 µM |
| O=C1CCC(Nc2ccccc2Cl)C(=O)N1 (stereo not shown) [Compound 49] | < 10 µM |
| COc1ccc(NC2CCC(=O)NC2=O)c(F)c1 (stereo not shown) [Compound 11] | < 10 µM |
| O=C1CCC(N2CCc3cccnc32)C(=O)N1 (stereo not shown) [Compound 118] | > 100 µM |
| COc1ccccc1NC1CCC(=O)NC1=O (stereo not shown) [Compound 15] | < 10 µM |
| O=C1CCC(Nc2cccc(N3CCOCC3)c2)C(=O)N1 (stereo not shown) [Compound 64] | < 10 µM |
| COc1ccc(NC2CCC(=O)NC2=O)c(OC)c1 (stereo not shown) [Compound 70] | < 10 µM |
| Cc1ccc(C#N)cc1NC1CCC(=O)NC1=O (stereo not shown) [Compound 68] | > 100 µM |
| O=C1CCC(Nc2c(F)cccc2Cl)C(=O)N1 (stereo not shown) [Compound 54] | < 10 µM |
| Cc1ccc(NC2CCC(=O)NC2=O)cc1 (stereo not shown) [Compound 38] | < 10 µM |
| COc1cc(Cl)ccc1NC1CCC(=O)NC1=O (stereo not shown) [Compound 47] | < 10 µM |
| CN(CC(=O)O)C1CCC(=O)NC1=O (stereo not shown) [Compound 107] | > 100 µM |
| O=C1CCC(Nc2cc(F)ccc2Cl)C(=O)N1 (stereo not shown) [Compound 45] | < 10 µM |
| COc1ccc(N(C)C2CCC(=O)NC2=O)cc1 (stereo not shown) [Compound 20] | < 10 µM |
| CN(c1cccc(F)c1)C1CCC(=O)NC1=O (stereo not shown) [Compound 33] | < 10 µM |
| O=C1CCC(Nc2ccccc2Oc2ccccc2)C(=O)N1 (stereo not shown) [Compound 23] | < 10 µM |
| CC(C)(C)OC(=O)N1CCN(C2=CC(=O)NC2=O)CC1 [Compound 111] | > 100 µM |
| COc1ccc(Cl)cc1NC1CCC(=O)NC1=O (stereo not shown) [Compound 48] | < 10 µM |

| SMILES | Kd |
| --- | --- |
| CN(c1ccc(Br)cc1)C1CCC(=O)NC1=O (stereo not shown) [Compound 32] | < 10 µM |
| Cn1ccc2cc(NC3CCC(=O)NC3=O)ccc21 (stereo not shown) [Compound 51] | < 10 µM |
| CC(C)(C)c1ccccc1NC1CCC(=O)NC1=O (stereo not shown) [Compound 41] | < 10 µM |
| CN1CC(N(C)C2CCC(=O)NC2=O)C1 (stereo not shown) [Compound 102] | > 100 µM |
| COc1c(Cl)cccc1NC1CCC(=O)NC1=O (stereo not shown) [Compound 62] | < 10 µM |
| CN(c1cccc(Cl)c1)C1CCC(=O)NC1=O (stereo not shown) [Compound 34] | < 10 µM |
| Cc1ccc(NC2CCC(=O)NC2=O)cc1C#N (stereo not shown) [Compound 12] | < 10 µM |
| CN(c1ccc(Cl)c(Cl)c1)C1CCC(=O)NC1=O (stereo not shown) [Compound 60] | < 10 µM |
| N#Cc1c[nH]nc1NC1CCC(=O)NC1=O (stereo not shown) [Compound 96] | > 100 µM |
| O=C1C=C(Nc2ccccc2)C(=O)N1 [Compound 112] | > 100 µM |
| COc1cccc(N(C)C2CCC(=O)NC2=O)c1 (stereo not shown) [Compound 16] | < 10 µM |
| O=C1CCC(Nc2ccccc2-c2ccccc2)C(=O)N1 (stereo not shown) [Compound 5] | < 10 µM |
| O=C1CCC(Nc2cccc(Cl)c2)C(=O)N1 (stereo not shown) [Compound 40] | < 10 µM |
| CN(c1cccc(N2CCN(C(=O)OC(C)(C)C)CC2)c1)C1CCC(=O)NC1=O (stereo not shown) [Compound 88] | < 10 µM |
| CN1CCN(c2ccc(OC3CCC(=O)NC3=O)cc2)CC1 (stereo not shown) [Compound 126] | < 10 µM |
| COc1ccc(NC2CCC(=O)NC2=O)cc1F (stereo not shown) [Compound 7] | < 10 µM |
| O=C1CCC(Nc2cccc(N3CCNCC3)c2)C(=O)N1 (stereo not shown) [Compound 86] | < 10 µM |
| CN(C1CNC1)C1CCC(=O)NC1=O (stereo not shown) [Compound 101] | > 100 µM |
| COc1cc(F)ccc1NC1CCC(=O)NC1=O (stereo not shown) [Compound 10] | < 10 µM |
| COc1cccc(NC2CCC(=O)NC2=O)c1 (stereo not shown) [Compound 13] | < 10 µM |
| CC(C)(C)OC(=O)N1CCC(c2ccc(NC3CCC(=O)NC3=O)cc2)CC1 (stereo not shown) [Compound 81] | < 10 µM |
| O=C1CCC(Nc2ccc(CN3CCOCC3)cc2)C(=O)N1 (stereo not shown) [Compound 27] | < 10 µM |
| COC(=O)c1cccnc1NC1CCC(=O)NC1=O (stereo not shown) [Compound 122] | > 100 µM |
| O=C1CCC(Nc2cc(Cl)ccc2O)C(=O)N1 (stereo not shown) [Compound 19] | < 10 µM |

| SMILES | Kd |
| --- | --- |
| COc1cc(Cl)c(C)cc1NC1CCC(=O)NC1=O (stereo not shown) [Compound 4] | < 10 µM |
| O=C1CCC(Nc2ccc(C(F)(F)F)cc2)C(=O)N1 (stereo not shown) [Compound 26] | < 10 µM |
| O=C1CCC(Nc2cccc(-c3ccccn3)c2)C(=O)N1 (stereo not shown) [Compound 22] | < 10 µM |
| Cc1cccc(NC2CCC(=O)NC2=O)c1C#N (stereo not shown) [Compound 65] | < 10 µM |
| COc1ccc(NC2CCC(=O)NC2=O)cc1 (stereo not shown) [Compound 52] | < 10 µM |
| O=C1CCC(Nc2cccc(-c3cnco3)c2)C(=O)N1 (stereo not shown) [Compound 39] | < 10 µM |
| CN1CCC(N(C)C2CCC(=O)NC2=O)CC1=O (stereo not shown) [Compound 106] | > 100 µM |
| O=C1CCC(Nc2cccc(F)c2)C(=O)N1 (stereo not shown) [Compound 9] | < 10 µM |
| COc1ccc(NC2CCC(=O)NC2=O)c(C)c1 (stereo not shown) [Compound 36] | < 10 µM |
| N#Cc1cccc(NC2CCC(=O)NC2=O)c1 (stereo not shown) [Compound 56] | < 10 µM |
| Cc1ccccc1NC1CCC(=O)NC1=O (stereo not shown) [Compound 50] | < 10 µM |
| Cc1ccccc1N(C)C1CCC(=O)NC1=O (stereo not shown) [Compound 61] | < 10 µM |
| O=C1CCC(Nc2ccccc2OC(F)F)C(=O)N1 (stereo not shown) [Compound 55] | < 10 µM |
| O=C1CCC(Nc2cccc3ccccc23)C(=O)N1 (stereo not shown) [Compound 77] | < 10 µM |
| O=C1CCC(NC2CC(=O)N(c3ccccc3)C2)C(=O)N1 (stereo not shown) [Compound 99] | > 100 µM |
| O=C1CCC(Nc2cccc(C(F)(F)F)c2)C(=O)N1 (stereo not shown) [Compound 35] | < 10 µM |
| COc1ccc(Cl)c(NC2CCC(=O)NC2=O)c1 (stereo not shown) [Compound 44] | < 10 µM |
| COc1cc(NC2CCC(=O)NC2=O)cc(C(F)(F)F)c1 (stereo not shown) [Compound 29] | < 10 µM |
| O=C1CCC(Nc2ccc(C3CCNCC3)cc2)C(=O)N1 (stereo not shown) [Compound 85] | < 10 µM |
| CCCOc1ccc(NC2CCC(=O)NC2=O)cc1 (stereo not shown) [Compound 31] | < 10 µM |
| O=C1CCC(Nc2ccc(F)cc2Cl)C(=O)N1 (stereo not shown) [Compound 43] | < 10 µM |
| O=C1CCC(Nc2ccccc2F)C(=O)N1 (stereo not shown) [Compound 53] | < 10 µM |
| CN(c1cccc(Br)c1)C1CCC(=O)NC1=O (stereo not shown) [Compound 57] | < 10 µM |
| O=C1CCC(Nc2cccc(Oc3ccccc3)c2)C(=O)N1 (stereo not shown) [Compound 30] | < 10 µM |

same assay, conditions: FP displacement of (−)-Thalidomide-Alexa Fluor or Pomalidomide-fluorescein probe; 400 nM CRBN-DDB1, 5 nM probe; Degronimers

| SMILES | Kd |
| --- | --- |
| Cc1nnc2n1-c1ccc(-c3cnn(CCCCCCN4CCN(c5ccc(NC6CCC(=O)NC6=O)cc5)CC4)c3)cc1C(c1ccc(Cl)cc1)=NC21CC1 (stereo not shown) [Degronimer 2, 3-((4-(4-(6-(4-(6-(4-chlorophenyl)-1-methylspiro[benzo[f][1,2,4]triazolo[4,3-a][1,4]diazepine-4,1′-cyclopropan]-8-yl)-1H-pyrazol-1-yl)hexyl)piperazin-1-yl)phenyl)amino)piperidine-2,6-dione] | < 10 µM |
| Cc1sc2c(c1C)C(c1ccc(Cl)cc1)=N[C@@H](CC(=O)NCCCCCCCCN1CCN(c3ccc(NC4CCC(=O)NC4=O)cc3)CC1)c1nnc(C)n1-2 (stereo partly drawn) [Degronimer 1, 2-((S)-4-(4-chlorophenyl)-2,3,9-trimethyl-6H-thieno[3,2-f][1,2,4]triazolo[4,3-a][1,4]diazepin-6-yl)-N-(8-(4-(4-((2,6-dioxopiperidin-3-yl)amino)phenyl)piperazin-1-yl)octyl)acetamide] | < 10 µM |
